Assay results: patent publication EP1582519A2, “Heteropolycyclic compounds and their use as metabotropic glutamate receptor antagonists” (NPS PHARMACEUTICALS, INC., priority 1999, dated 2001)

Target: native receptor, mGluR5d (Rattus norvegicus, UniProt P31424)
Assay: Antagonist activity on the native receptor mGluR5d
Format: cell-based
Description: Primary astrocyte cultures were prepared from 3-5 day old Sprague-Dawley rat pups using a modification of Miller (Miller et al, J. Neuroscience, 15(9): 6103-6109, 1995). In brief, primary cultures were plated on poly-L lysine coated flasks in Dulbecco's modified Eagle's medium (DMEM) containing fetal calf serum (FCS). After 6 days, cell cultures were shaken over night at 280 rpm, then transferred to astrocyte-defined media (ADM) containing growth factors that up-regulate the expression of mGluR5 (Miller et al., 1995). […] For FLIPR analysis, cells were seeded on poly-D lysine coated clear bottom 96-well plates with black sides and analysis of [Ca^2+]i mobilization was performed 3 days following the growth factor up-regulation. Cell cultures in the 96-well plates were loaded with a 4 µM solution of acetoxymethyl ester form of the fluorescent calcium indicator fluo-3 (Molecular Probes, Eugene, Oregon) in 0.01 % pluronic. All assays were performed in a buffer containing 127 mM NaCl, 5 mM KCl, 2 mM MgCl2, 0.7 mM NaH2PO4, 2 mM CaCl2, 0.422 mg/ml NaHCO3, 2.4 mg/ml HEPES, 1.8 mg/ml glucose and 1 mg/ml BSA Fraction IV (pH 7.4). […] After each addition the fluorescence signal was sampled 50 times at 1 second intervals followed by 3 samples at 5 second intervals. Responses were measured as the peak height of the response within the sample period. […]

Chain of native receptor, mGluR5d (P31424 21-1203): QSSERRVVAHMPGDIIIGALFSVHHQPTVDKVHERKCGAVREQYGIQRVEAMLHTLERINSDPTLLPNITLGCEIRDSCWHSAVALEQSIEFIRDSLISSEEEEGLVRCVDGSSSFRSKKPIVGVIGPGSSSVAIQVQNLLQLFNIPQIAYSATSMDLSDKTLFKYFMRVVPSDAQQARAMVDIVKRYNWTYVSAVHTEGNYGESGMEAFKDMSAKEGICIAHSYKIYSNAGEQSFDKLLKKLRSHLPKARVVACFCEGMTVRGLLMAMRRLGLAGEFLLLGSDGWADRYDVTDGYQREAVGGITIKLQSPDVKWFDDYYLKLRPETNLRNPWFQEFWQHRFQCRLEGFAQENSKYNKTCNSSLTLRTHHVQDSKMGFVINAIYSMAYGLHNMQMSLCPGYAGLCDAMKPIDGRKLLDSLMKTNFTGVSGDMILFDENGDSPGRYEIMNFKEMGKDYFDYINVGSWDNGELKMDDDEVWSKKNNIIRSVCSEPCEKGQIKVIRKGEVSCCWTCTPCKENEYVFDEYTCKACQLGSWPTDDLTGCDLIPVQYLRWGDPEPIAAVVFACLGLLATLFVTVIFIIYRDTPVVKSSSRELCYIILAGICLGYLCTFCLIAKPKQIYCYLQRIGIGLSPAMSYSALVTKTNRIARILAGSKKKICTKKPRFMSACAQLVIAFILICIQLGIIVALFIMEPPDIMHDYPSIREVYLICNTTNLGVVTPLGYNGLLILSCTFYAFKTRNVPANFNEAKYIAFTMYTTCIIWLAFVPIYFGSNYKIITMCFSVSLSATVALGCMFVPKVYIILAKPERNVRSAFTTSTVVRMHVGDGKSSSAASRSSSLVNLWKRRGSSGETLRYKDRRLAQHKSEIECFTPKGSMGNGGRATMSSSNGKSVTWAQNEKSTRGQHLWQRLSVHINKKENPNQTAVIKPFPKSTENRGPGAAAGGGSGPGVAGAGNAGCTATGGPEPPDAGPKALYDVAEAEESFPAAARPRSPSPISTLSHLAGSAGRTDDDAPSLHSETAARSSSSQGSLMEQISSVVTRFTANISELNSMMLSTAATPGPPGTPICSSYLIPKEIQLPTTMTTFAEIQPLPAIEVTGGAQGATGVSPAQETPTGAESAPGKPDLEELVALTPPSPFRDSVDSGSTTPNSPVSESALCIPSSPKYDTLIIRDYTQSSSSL

SMILES | IC50 [nM]
N#Cc1cccc(-c2nc(-c3ccccn3)no2)c1 [B21, 3-(2-pyridyl)-5-(3-cyanophenyl)-1,2,4-oxadiazole] | 121
N#Cc1cccc(-c2nc(-c3ccccn3)co2)c1 [B52, 2-[3-cyanophenyl]-4-[pyridin-2-yl]-1,3-oxazole] | 74
